Experimental findings from patent US11660319B2, “Compositions comprising bacterial strains” (priority 2017, dated 2023) are described below.

One test deals with HDAC. The experiment in a line: HDAC inhibition on whole HT-29 cells and HT-29 cell lysate. The format is cell-based. The note with it: HT-29, whole cells or lysate not told apart in the sentence. How it is done:
Bacterial culture and cell-free supernatant collection Pure cultures of bacteria were grown anaerobically in YCFA broth until they reached their stationary growth phase. Cultures were centrifuged at 5,000×g for 5 minutes and the cell-free supernatant (CFS) was filtered using a 0.2 μM filter (Millipore, UK). 1 mL aliquots of the CFS were stored at −80° C. until use. Sodium butyrate, hexanoic and valeric acid were obtained from Sigma Aldrich (UK) and suspensions were prepared in YCFA broth.
To investigate which metabolites were responsible for the strain-induced HDAC inhibition, different concentrations of hexanoic acid, valeric acid and sodium butyrate were measured for their HDAC inhibition on whole HT-29 cells and on HT-29 cell lysate.

In a further test the test system is Class I HDACs. The experiment in a line: Specific HDAC activity analysis, Class I HDACs overall. The format is biochemical. As for the experimental part: Specific HDAC inhibition activity was analysed for HDAC1, 2, 3, 4, 5, 6, 9 using fluorogenic assay kits for each type of HDAC (BPS Bioscience, CA). Assays were conducted according to manufacturer's instructions and each sample were performed in replicates. Cell free supernatants were diluted 1 in 10 and exposed to specific HDAC proteins provided in the kit to maintain consistency between methods.
The specific HDAC inhibition profile of the test bacteria strain was investigated. Specific HDAC inhibition assays (BPS Bioscience, CA) were carried out for Class I and Class II HDACs. The ability of the bacterial strain to inhibit HDAC enzymes was compared to butyrate, hexanoic and valeric acid (FIGS. 14 and 15).

On to `CCCCC(=O)O` [valeric acid], for which the “total HDAC activity, pure substances” value is on record as “significant HDAC inhibition” with HDAC and “inhibited” in the test on HDAC (listed as Valeric acid). The “Inhibition of Class I HDACs” value with Class I HDACs was “class 1 HDAC inhibitor”.
